The record followed here is ChEMBL document CHEMBL1201862, “PubChem BioAssay data set” (2004).

Activity calls are given as the source filed them.

The target of test [1] is T1, Carboxy-terminal domain RNA polymerase II polypeptide A small phosphatase 1 (Homo sapiens, UniProt Q9GZU7).
T1 sequence (Q9GZU7 whole entry): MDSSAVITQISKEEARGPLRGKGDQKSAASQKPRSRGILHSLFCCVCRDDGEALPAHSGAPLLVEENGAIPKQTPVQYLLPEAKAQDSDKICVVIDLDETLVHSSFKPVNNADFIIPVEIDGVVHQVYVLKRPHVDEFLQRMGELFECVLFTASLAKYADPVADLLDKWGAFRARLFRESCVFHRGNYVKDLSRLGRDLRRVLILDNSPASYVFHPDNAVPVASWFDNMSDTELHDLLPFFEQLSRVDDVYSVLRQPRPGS
Description: inhibitors of CTDSP1, concentration-response testing, biochemical assay, absorbance-based, actives from ultra-high-throughput screening (AID 540297). The class given is functional.

In test [2] the target is 72 kDa type IV collagenase (Homo sapiens, UniProt P08253). Description: Dose Response validation of uHTS RPN11 inhibitor hits using a MMP-2 Fluorescence assay. It is filed as functional.
A further test concerns the target Prothrombin (Bos taurus, UniProt P00735). In words: thrombin inhibition, dose response, biochemical, fluorescence polarization, uHTS hits (AID 602369). It is filed as functional. (In general: Polarisation of emitted light reports the rotation of a fluorescent probe.)
For test [3], the target named is 26S proteasome non-ATPase regulatory subunit 14 (Homo sapiens, UniProt O00487). In words: inhibition of proteasome subunit RPN11 – biochemical, fluorescence polarization, uHTS hits, confirmation (AID 602368). The class given is functional.
For test [4], the target named is Mitogen-activated protein kinase kinase kinase kinase 4 (Homo sapiens, UniProt O95819). It is filed as functional.
Test [5] concerns the target Dual specificity protein kinase CLK4 (Homo sapiens, UniProt Q9HAZ1). It is filed as functional.
The target in test [6] is Cell division cycle 7-related protein kinase (Homo sapiens, UniProt O00311). The class given is functional.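 Also: value obtained from a kinome-wide kinase panel.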
Test [7] addresses Glycogen synthase kinase-3 beta (Homo sapiens, UniProt P49841). It is filed as functional.
Test [8] addresses MAP kinase-interacting serine/threonine-protein kinase 2 (Homo sapiens, UniProt Q9HBH9). The class given is functional.
For test [9], the target named is Homeodomain-interacting protein kinase 2 (Homo sapiens, UniProt Q9H2X6). The class given is functional.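 Also: measured within a kinome-wide kinase profiling panel, HIPK2 being one panel member.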
Test [10] addresses T2, Interleukin-1 receptor-associated kinase 4 (Homo sapiens, UniProt Q9NWZ3).
T2 sequence (Q9NWZ3 whole entry): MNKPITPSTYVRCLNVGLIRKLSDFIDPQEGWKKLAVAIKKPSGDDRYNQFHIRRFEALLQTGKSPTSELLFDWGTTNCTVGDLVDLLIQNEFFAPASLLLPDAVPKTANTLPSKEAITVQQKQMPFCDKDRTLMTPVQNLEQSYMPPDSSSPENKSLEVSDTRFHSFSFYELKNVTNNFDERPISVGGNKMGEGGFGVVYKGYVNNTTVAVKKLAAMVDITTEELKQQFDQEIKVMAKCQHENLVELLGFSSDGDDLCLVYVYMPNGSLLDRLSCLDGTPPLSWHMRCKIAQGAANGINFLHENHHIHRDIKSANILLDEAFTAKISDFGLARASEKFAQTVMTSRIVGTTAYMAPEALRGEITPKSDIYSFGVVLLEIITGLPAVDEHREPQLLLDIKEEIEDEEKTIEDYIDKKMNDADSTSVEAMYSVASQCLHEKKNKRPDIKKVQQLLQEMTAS
It is filed as functional.

Test [11] addresses Serine/threonine-protein kinase pim-1 (Homo sapiens, UniProt P11309). It is filed as functional.
Test [12] concerns the target cAMP-dependent protein kinase catalytic subunit alpha (Homo sapiens, UniProt P17612). It is filed as functional.
The target in test [13] is T3, Apoptotic protease-activating factor 1 (Homo sapiens, UniProt O14727).
T3 sequence (O14727 whole entry): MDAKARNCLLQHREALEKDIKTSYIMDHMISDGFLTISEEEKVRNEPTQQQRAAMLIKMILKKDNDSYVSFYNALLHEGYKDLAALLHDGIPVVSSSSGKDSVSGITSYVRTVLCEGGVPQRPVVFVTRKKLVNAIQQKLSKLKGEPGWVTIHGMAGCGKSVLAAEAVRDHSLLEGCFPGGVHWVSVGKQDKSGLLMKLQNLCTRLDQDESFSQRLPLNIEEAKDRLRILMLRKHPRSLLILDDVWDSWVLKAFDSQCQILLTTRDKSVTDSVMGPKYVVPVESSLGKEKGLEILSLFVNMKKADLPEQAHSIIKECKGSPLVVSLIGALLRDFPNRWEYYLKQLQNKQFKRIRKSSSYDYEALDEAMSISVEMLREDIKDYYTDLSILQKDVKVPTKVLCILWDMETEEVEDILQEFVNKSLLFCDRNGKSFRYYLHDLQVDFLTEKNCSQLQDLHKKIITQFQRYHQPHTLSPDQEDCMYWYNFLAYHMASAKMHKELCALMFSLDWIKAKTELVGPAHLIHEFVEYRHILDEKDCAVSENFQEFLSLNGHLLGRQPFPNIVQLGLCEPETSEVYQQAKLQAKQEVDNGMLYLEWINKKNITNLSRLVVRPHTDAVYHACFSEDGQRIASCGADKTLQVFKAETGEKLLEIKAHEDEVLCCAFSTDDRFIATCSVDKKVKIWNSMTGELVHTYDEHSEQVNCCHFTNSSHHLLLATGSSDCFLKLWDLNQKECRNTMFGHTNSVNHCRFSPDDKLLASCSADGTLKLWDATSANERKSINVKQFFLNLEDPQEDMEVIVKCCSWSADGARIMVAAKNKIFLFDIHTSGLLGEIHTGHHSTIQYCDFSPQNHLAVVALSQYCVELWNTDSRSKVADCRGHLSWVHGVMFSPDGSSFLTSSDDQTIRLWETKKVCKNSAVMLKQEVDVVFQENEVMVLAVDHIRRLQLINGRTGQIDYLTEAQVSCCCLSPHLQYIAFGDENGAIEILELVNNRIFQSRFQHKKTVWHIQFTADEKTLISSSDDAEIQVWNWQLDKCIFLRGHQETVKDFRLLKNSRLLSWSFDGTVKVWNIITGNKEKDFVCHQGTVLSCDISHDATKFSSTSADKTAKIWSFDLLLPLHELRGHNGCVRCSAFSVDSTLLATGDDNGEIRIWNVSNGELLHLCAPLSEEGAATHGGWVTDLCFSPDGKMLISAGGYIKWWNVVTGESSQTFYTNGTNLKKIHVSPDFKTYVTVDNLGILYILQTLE
It is filed as functional.

The test system of test [14] is HEK293. In words: optical interference in Abeta FP readout, dose response, artefact control for IDE activator project, biochemical, fluorescence polarization (AID 588442). The class given is functional, cell-based. The following applies: Homo sapiens.
Test [15] concerns the target T4, Insulin-degrading enzyme (Homo sapiens, UniProt P14735).
T4 sequence (P14735 whole entry): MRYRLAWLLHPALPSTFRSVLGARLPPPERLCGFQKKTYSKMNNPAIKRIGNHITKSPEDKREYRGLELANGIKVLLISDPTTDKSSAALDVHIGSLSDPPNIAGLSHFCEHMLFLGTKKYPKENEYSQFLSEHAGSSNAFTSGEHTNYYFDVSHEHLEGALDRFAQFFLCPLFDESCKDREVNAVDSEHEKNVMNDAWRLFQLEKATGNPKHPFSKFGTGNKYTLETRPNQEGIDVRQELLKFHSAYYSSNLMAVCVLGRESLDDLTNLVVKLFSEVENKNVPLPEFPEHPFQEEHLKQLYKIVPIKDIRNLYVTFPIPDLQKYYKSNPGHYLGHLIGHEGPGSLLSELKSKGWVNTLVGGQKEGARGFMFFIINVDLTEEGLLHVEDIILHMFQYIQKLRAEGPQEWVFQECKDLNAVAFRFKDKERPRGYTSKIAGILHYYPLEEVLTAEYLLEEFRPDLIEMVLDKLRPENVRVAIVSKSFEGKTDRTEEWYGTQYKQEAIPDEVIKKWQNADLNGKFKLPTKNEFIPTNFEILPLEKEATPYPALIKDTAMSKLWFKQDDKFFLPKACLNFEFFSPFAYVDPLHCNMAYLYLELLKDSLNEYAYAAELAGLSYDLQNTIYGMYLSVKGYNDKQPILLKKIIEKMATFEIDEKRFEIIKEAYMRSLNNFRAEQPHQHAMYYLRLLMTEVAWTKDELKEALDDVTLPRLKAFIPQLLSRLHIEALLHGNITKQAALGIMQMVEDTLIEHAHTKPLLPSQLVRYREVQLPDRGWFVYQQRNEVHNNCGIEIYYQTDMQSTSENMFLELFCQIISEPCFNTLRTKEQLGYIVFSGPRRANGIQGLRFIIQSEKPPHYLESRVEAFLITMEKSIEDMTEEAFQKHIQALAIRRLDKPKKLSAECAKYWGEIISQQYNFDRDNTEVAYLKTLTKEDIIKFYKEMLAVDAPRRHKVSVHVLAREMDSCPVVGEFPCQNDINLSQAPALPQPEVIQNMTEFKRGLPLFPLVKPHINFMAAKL
In words: activators of recombinant IDE enzyme, dose response, counter-screen for IDE activator project, biochemical, fluorescence polarization (AID 588681). A general note: A counterscreen serves to expose hits that act by an unwanted route or on another target.

In test [16] the test system is HEK293. In words: HEK cell cytotoxicity by LDH release, dose response, cytotoxicity control for IDE activator project, fluorescence, HEK cells (AID 588440).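 Also: cytotoxicity by LDH release measuring loss of membrane integrity.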 The class given is functional, cell-based. The following applies: Homo sapiens. Background: Release of lactate dehydrogenase indicates damage to the cell membrane.
Test [17] concerns the target T4, Insulin-degrading enzyme. Description: activators of endogenous IDE in HEK cells, dose response, cell-based, fluorescence polarization (AID 588439). The class given is functional.
A short description of test [18]: nonselective inhibitors of cellular cAMP signaling, dose response, counter-screen for MC4R biased antagonist project, cell-based, TR-FRET cAMP detection (AID 602305).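 Also: U2OS cells stimulated with forskolin near its EC80 as the cAMP inducer; potency is for inhibition of forskolin-stimulated cAMP signaling.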 It is filed as functional.
For a further test, the target named is Melanocortin receptor 4 (Homo sapiens, UniProt P32245). Description: MC4R antagonist potency on cAMP, dose response, cell-based, TR-FRET, biased antagonists (AID 602298).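 Also: antagonist potency against agonist-stimulated cAMP production.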 The class given is functional.
For test [19], the target named is T5, High affinity choline transporter 1 (Homo sapiens, UniProt Q9GZV3).
T5 sequence (Q9GZV3 whole entry): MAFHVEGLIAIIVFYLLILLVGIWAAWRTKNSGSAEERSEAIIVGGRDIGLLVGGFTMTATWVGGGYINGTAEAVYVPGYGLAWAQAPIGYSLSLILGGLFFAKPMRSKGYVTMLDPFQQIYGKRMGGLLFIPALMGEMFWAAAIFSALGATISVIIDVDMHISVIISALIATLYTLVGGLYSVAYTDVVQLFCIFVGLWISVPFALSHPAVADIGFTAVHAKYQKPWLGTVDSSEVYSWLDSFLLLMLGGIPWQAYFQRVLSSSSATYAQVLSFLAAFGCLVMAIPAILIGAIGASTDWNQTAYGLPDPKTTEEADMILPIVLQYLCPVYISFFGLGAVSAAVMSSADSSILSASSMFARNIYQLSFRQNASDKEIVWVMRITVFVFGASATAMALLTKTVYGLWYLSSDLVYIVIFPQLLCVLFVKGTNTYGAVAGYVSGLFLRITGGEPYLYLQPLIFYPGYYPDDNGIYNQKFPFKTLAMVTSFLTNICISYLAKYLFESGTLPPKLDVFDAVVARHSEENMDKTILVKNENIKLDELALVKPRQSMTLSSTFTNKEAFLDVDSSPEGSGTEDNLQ
In words: CHT inhibitors, dose response, cell-based, 5-point CRC, membrane potential dye (AID 504840). It is filed as functional.

Test [20] deals with T5, High affinity choline transporter 1. In words: CHT inhibitors, dose response, cell-based, 10-point CRC, membrane potential dye (AID 588401).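 Also: membrane potential dye fluorescence of choline-evoked depolarization via CHT.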 The class given is functional.
The nature of test [21]: A cytotoxicity screen of small molecule inhibitors of the PhoP region in Salmonella typhi identified in the primary screen. [Related pubchem assays: 1850, 1864, 1985 ]. It is filed as functional.
The target of test [22] is T3, Apoptotic protease-activating factor 1. In words: SAR analysis of small molecule Activators of Apaf-1 in a Fluorescent assay. It is filed as functional. The following applies: read-out: EC50_Mean.
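For EC50 Mean in this document: caspase-3 cleavage of fluorogenic Rh110 DEVD substrate downstream of apoptosome activation.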

Melanocortin receptor 4, sequence (P32245 whole entry): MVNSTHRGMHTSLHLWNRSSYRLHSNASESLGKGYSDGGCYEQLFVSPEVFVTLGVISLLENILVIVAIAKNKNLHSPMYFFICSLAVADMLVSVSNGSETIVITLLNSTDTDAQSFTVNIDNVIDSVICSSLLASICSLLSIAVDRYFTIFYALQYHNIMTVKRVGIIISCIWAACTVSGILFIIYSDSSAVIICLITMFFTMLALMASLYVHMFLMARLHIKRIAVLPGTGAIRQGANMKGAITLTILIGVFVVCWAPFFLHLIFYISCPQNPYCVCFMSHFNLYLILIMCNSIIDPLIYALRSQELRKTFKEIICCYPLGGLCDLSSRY
Cell division cycle 7-related protein kinase, sequence (O00311 whole entry): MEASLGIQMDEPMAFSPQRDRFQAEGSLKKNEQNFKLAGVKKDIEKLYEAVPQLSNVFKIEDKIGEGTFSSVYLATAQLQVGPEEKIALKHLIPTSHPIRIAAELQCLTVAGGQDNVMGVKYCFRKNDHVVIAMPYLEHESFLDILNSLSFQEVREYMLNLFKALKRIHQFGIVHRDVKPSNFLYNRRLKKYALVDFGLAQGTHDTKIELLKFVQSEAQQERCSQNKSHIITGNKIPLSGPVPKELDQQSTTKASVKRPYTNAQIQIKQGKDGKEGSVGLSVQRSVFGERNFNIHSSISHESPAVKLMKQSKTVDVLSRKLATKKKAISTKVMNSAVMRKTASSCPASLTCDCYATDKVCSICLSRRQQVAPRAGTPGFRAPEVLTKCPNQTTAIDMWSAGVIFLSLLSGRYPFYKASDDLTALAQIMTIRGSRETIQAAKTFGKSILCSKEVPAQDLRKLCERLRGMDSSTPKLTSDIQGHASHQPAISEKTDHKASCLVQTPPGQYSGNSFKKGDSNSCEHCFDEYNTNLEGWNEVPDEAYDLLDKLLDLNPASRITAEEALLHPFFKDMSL
Glycogen synthase kinase-3 beta, sequence (P49841 whole entry): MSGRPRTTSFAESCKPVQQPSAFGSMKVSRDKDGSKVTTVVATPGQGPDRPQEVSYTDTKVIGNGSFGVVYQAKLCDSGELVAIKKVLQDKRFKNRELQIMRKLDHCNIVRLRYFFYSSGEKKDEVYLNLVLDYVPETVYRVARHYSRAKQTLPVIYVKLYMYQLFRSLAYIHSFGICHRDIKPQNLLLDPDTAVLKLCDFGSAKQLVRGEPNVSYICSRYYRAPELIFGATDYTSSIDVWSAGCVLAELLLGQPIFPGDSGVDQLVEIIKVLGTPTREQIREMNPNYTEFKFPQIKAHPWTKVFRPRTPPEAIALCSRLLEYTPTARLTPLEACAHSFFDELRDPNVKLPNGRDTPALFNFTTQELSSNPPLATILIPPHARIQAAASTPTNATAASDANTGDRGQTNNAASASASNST
72 kDa type IV collagenase, sequence (P08253 whole entry): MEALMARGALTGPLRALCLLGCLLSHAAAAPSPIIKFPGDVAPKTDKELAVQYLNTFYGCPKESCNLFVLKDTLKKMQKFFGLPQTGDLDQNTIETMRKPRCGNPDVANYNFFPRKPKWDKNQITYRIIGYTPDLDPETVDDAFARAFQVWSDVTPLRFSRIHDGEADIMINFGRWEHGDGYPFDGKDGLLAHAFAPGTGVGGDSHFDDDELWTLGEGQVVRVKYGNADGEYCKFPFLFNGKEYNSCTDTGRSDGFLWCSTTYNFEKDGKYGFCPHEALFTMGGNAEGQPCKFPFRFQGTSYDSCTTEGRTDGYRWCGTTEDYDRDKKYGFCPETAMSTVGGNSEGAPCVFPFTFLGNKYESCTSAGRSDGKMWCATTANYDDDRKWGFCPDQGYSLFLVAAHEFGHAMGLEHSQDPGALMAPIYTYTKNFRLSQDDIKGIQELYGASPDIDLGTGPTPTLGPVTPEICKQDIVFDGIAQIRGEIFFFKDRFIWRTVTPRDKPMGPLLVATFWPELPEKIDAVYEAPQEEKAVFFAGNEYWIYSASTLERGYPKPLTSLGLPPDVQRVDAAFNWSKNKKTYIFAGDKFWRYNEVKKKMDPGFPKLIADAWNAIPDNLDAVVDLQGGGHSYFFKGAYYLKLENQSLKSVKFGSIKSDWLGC
Mitogen-activated protein kinase kinase kinase kinase 4, sequence (O95819 whole entry): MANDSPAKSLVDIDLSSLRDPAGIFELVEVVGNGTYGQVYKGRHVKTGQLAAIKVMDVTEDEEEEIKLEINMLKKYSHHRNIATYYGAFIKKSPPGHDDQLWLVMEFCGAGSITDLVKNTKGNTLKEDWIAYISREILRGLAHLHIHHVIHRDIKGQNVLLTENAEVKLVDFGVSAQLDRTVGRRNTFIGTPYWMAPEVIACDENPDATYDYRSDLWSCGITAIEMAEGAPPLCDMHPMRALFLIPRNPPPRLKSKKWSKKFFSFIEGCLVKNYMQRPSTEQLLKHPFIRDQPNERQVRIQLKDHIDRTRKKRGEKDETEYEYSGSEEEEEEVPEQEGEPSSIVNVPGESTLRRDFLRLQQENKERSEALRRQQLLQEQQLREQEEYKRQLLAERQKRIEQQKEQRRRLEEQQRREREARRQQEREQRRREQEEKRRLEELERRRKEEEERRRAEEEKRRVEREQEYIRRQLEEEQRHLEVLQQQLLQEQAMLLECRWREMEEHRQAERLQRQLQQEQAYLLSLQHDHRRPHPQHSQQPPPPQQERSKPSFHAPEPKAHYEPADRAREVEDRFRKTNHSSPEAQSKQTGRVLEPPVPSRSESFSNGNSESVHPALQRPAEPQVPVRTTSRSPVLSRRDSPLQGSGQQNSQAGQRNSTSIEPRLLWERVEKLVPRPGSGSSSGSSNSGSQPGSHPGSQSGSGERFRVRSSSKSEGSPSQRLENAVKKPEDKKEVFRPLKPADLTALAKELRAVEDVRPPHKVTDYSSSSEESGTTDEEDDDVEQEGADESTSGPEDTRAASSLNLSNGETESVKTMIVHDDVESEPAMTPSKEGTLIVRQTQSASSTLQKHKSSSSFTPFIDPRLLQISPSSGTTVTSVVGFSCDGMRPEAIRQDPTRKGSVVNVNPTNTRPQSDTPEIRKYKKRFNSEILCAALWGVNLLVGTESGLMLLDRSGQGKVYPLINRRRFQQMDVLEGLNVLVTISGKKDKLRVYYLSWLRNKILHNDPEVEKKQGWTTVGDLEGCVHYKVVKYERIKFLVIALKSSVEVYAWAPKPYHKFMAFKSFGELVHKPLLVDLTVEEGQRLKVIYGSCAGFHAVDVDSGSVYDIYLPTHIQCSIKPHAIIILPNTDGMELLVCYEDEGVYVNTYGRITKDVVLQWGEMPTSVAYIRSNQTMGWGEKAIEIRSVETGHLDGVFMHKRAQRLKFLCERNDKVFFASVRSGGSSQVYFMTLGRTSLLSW
MAP kinase-interacting serine/threonine-protein kinase 2, sequence (Q9HBH9 whole entry): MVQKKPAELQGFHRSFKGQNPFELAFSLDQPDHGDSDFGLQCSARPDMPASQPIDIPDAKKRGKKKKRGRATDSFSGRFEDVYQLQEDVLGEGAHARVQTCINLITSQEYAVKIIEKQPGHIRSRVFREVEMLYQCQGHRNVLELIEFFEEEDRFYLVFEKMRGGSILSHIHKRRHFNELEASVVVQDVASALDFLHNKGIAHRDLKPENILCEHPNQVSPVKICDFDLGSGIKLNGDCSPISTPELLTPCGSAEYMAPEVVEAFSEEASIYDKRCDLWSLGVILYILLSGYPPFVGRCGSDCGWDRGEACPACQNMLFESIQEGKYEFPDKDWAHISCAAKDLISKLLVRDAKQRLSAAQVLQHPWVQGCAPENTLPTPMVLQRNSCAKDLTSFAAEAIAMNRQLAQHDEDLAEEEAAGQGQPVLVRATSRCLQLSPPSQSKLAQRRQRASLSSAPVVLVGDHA
Serine/threonine-protein kinase pim-1, sequence (P11309 whole entry): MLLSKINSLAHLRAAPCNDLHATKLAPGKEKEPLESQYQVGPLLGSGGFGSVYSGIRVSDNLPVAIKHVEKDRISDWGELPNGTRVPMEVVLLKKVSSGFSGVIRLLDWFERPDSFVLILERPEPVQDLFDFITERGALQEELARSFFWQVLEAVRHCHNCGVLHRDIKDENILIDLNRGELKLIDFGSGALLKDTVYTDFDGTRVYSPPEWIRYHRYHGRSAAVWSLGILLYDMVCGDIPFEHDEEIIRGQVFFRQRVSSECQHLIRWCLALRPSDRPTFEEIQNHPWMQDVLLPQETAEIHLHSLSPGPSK
26S proteasome non-ATPase regulatory subunit 14, sequence (O00487 whole entry): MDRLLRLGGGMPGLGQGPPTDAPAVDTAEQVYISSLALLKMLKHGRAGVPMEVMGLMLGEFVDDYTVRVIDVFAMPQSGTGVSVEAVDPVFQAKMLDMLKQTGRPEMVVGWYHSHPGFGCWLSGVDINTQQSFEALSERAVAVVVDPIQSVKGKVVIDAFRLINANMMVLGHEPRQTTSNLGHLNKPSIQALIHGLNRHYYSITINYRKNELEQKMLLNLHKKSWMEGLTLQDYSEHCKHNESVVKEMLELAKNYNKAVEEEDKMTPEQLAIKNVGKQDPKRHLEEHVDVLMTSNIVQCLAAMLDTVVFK
Dual specificity protein kinase CLK4, sequence (Q9HAZ1 whole entry): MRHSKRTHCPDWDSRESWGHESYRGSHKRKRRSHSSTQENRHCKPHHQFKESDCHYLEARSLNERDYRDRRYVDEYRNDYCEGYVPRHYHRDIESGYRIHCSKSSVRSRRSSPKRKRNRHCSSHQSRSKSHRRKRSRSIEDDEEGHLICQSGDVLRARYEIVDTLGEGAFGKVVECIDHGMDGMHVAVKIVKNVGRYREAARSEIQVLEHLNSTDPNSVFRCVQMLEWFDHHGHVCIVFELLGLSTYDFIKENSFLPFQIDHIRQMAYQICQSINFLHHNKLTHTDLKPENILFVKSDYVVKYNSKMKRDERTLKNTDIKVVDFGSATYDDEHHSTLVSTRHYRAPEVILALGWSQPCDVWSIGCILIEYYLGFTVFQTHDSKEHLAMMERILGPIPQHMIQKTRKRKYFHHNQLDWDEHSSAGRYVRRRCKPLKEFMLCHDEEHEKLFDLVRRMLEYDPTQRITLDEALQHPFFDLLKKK

In general, IC50 refers to the concentration that gives 50% inhibition. For `CCN(CC(=O)Nc1c(F)cccc1F)C(=O)CCc1nc2sc3c(c2c(=O)[nH]1)CCCC3`, the IC50 in test [1] is 4.4 µM (active); in test [2], > 100 µM (inactive); at Prothrombin it was 85.3 µM (active); in test [3], 19.9 µM (active).

Broadly, the Ki is a measure of affinity in units of concentration, obtained from inhibition or displacement. `Nc1n[nH]c2ccc(-c3cc(Cc4ccccc4)no3)cc12`: the Ki is 0.501 µM (active) in test [4]; 0.01 µM (active) in test [5]; 0.0316 µM (active) in [6]; 0.158 µM (active) in test [7]; 1 µM (active) in test [8]; 1.58 µM (active) in [9]. Moreover, the values for the Ki in test [10], in test [11] and in [12] were 6.31 µM (active), > 10 µM (inactive) and 0.316 µM (active), respectively.

For `CCCCNc1c(-c2ccc(SC(C)CC)cc2)nc2cnccn12` (stereo not drawn), the IC50 in [13] was 63.1 µM (active); in the test on HEK293 [16], 27.4 µM (inactive). Moreover, the EC50 was > 55.9 µM (inactive) with HEK293 [14], > 54.7 µM (inactive) on Insulin-degrading enzyme [15] and > 54.7 µM (inactive) on Insulin-degrading enzyme [17].

Consider `COc1cc2c(cc1NC(=O)COC(=O)CNS(=O)(=O)c1ccc(C)cc1)oc1ccccc12`, for which the IC50 (in [18]; at Melanocortin receptor 4) was > 64.6 µM (inactive) each time.

On to `Cc1cc(NS(=O)(=O)c2ccc(NC(=O)c3ccc(Cl)cc3Cl)cc2)no1`, for which the values for the IC50 in [19] and in [20] were 5.81 µM (active) and 4.47 µM (active), respectively.

Take `O=C(On1c(-c2ccccc2)nc2ccccc2c1=O)c1ccco1`: in test [21], the EC50 was > 50 µM (active). In addition, the IC50 in test [19] is 4.57 µM (active); in test [20], 8.91 µM (active).

Take `CCOc1ccc(C(=O)CC(C(=O)O)c2cn(C)c3ccccc23)cc1` (stereo not drawn): the EC50 in test [22] was > 100 µM (inactive).

With `Cc1ccc(S(=O)(=O)NCC(=O)OCc2nnc(-c3ccccc3)o2)cc1`, the IC50 (in [18]; on Melanocortin receptor 4) was > 64.6 µM (inactive) in each case.
